Experimental data as given in patent publication US7074789B2, “Kinase inhibitors” (Amgen Inc., priority 1999, dated 2006).

Key:
Assay type in all cases: biochemical
ErbB2 = target: T1, ErbB2 (Homo sapiens, UniProt P04626); assay: Kinase inhibition assay (33P transfer), ErbB2; conditions: read-out: ErbB2-2
T1 construct: Kinases are expressed as either kinase domains or full length constructs; made in house
How it was run: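 Radiometric format: recombinant tagged kinase (catalytic domain or whole protein, sometimes combined with regulatory polypeptides) phosphorylates immobilised poly(Glu,Tyr) 4:1 or poly(Arg,Ser) 3:1 using [33P]ATP. Wells are washed in 0.5% phosphoric acid, then counted. IC50 is taken where substrate labelling falls by half.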

Ret-1 = target: T2, Ret-1 (Homo sapiens, UniProt P07949); assay: Kinase inhibition assay (33P transfer), Ret; conditions: Table 6, Ret-1 kinase inhibition class
T2 construct: Kinases are expressed as either kinase domains or full length constructs; made in house

PDGFRB = target: T3, PDGFRB (Homo sapiens, UniProt P09619); assay: Kinase inhibition assay (33P transfer), PDGFRB; conditions: read-out: PDGFRB-1
T3 construct: Kinases are expressed as either kinase domains or full length constructs; made in house
T3 sequence (P09619 33-1106, species assumed): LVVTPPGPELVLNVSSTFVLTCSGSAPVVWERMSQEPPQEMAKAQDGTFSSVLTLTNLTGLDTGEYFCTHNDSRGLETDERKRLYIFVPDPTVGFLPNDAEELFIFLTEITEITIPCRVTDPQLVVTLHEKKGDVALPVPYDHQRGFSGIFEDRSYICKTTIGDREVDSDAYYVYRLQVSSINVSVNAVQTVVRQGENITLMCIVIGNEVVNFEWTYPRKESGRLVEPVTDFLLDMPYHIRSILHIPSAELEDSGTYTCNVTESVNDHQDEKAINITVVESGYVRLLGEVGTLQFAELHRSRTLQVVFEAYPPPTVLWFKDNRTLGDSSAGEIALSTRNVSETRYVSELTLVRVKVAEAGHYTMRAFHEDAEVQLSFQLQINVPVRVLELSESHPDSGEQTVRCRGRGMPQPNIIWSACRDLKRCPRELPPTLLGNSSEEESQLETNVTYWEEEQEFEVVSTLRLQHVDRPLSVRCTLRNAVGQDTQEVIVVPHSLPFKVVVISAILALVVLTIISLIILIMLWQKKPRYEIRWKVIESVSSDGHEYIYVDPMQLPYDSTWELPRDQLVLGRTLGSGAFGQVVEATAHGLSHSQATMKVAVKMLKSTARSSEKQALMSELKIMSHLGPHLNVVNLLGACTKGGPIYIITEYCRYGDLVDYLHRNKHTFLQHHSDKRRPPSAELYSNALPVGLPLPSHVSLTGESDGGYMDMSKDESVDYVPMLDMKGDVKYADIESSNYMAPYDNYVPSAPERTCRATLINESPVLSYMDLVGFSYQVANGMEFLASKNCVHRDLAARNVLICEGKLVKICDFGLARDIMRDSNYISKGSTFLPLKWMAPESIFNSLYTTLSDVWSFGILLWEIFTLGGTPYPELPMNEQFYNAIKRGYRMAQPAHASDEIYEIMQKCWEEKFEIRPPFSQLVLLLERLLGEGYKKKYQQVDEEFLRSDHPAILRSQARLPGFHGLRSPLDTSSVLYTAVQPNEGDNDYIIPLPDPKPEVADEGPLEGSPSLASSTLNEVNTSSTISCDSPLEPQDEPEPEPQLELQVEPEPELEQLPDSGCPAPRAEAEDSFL

T1 sequence (P04626 23-1255, species assumed): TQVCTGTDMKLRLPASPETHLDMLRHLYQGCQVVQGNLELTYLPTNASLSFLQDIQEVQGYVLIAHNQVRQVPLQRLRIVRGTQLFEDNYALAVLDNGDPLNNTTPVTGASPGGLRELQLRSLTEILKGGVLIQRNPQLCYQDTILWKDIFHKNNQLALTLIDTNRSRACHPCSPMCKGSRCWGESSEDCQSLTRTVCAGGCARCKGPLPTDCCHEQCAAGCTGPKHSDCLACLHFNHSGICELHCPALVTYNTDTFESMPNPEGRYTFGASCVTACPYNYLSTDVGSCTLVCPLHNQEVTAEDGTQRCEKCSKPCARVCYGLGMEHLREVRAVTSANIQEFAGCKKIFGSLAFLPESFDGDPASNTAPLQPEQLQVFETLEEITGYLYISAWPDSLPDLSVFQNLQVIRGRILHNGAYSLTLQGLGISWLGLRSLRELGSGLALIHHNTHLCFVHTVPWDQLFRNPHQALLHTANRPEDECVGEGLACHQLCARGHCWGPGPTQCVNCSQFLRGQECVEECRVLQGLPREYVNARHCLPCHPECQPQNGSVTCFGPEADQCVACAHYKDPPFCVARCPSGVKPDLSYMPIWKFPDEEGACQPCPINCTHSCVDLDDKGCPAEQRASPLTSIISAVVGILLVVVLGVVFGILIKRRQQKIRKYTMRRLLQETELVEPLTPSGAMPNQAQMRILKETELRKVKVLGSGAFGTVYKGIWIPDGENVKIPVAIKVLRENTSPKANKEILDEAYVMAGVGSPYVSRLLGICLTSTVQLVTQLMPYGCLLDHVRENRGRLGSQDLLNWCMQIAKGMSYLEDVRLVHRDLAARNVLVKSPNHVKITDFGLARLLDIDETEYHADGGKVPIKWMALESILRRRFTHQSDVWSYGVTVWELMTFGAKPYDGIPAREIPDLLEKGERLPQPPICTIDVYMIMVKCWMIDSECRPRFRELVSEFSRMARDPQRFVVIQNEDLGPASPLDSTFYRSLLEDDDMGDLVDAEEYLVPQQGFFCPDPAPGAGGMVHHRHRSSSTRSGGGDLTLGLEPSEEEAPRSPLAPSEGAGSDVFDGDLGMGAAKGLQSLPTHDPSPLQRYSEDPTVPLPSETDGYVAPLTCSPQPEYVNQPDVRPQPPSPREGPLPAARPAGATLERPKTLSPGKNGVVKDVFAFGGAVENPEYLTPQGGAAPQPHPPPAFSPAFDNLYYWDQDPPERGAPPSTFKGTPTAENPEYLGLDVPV
T2 sequence (P07949 29-1114): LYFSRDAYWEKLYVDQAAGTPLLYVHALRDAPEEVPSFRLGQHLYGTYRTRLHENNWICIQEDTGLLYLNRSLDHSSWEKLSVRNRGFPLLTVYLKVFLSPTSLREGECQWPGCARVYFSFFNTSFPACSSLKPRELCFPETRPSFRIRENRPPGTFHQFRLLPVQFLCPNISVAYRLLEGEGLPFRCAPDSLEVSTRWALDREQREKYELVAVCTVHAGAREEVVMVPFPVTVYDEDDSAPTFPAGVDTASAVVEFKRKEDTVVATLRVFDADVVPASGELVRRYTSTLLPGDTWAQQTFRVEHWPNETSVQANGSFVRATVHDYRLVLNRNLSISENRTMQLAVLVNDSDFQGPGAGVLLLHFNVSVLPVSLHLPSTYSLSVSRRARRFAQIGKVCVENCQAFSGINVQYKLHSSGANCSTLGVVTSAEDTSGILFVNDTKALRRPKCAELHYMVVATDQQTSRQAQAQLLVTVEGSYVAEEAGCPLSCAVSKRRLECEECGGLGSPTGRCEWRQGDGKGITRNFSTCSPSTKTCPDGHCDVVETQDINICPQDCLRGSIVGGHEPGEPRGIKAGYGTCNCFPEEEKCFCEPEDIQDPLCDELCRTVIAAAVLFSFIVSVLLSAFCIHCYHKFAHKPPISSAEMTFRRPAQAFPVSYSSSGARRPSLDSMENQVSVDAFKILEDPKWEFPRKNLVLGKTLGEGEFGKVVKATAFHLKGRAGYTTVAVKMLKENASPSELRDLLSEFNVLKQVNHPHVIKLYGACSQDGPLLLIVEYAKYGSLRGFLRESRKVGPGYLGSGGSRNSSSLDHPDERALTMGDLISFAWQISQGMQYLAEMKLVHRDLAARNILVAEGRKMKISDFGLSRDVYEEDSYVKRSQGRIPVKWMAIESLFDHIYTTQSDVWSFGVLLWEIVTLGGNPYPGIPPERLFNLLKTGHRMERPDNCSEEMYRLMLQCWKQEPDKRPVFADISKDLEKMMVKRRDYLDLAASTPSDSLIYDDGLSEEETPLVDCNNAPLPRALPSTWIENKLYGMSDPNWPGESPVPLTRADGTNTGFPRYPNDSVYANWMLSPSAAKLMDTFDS

SMILES	IC50 (ErbB2) [µM]	IC50 (Ret-1) [µM]	IC50 (PDGFRB) [µM]
COc1cc(Nc2ncnc(Nc3cccc(C)c3)n2)cc(OC)c1OC [Compound 64]	1.09 to 6.53	> 12.2	–
COc1cc(Nc2ncnc(Nc3ccc4ccccc4c3)n2)cc(OC)c1OC [Compound 96]	< 0.991	5.95 to 8.68	–
COc1cc(Nc2ncnc(Nc3cccc(O)c3)n2)cc(OC)c1OC [Compound 78]	–	< 1.08	–
COc1cc(Nc2ncnc(Nc3ccccc3F)n2)cc(OC)c1OC [Compound 65]	–	1.08 to 6.46	–
COc1ccccc1Nc1ncnc(Nc2cc(OC)c(OC)c(OC)c2)n1 [Compound 90]	–	1.04 to 6.26	–
COc1cc(Nc2ncnc(Nc3ccc(Br)cc3)n2)cc(OC)c1OC [Compound 82]	–	0.925 to 5.55	–
COc1cc(Nc2ncnc(Nc3ccc(F)c(Cl)c3)n2)cc(OC)c1OC [Compound 61]	–	> 11.1	–
COc1cc(Nc2ncnc(Nc3ccc(C(N)=O)cc3)n2)cc(OC)c1OC [Compound 33]	–	> 11.4	–
COc1cc(Nc2ncnc(Nc3ccc(Cl)cc3)n2)cc(OC)c1OC [Compound 72]	1.03 to 6.19	< 1.03	–
COc1cc(Nc2ncnc(Nc3ccc(OCc4ccccc4)cc3)n2)cc(OC)c1OC [Compound 926]	–	7.62 to 9.79	–
COc1cccc(Nc2ncnc(Nc3cc(OC)c(OC)c(OC)c3)n2)c1 [Compound 87]	< 1.04	1.04 to 6.26	–
COc1cc(Nc2ncnc(Nc3ccc(C(C)C)cc3)n2)cc(OC)c1OC [Compound 66]	–	> 11.4	–
COc1cc(Nc2ncnc(-n3c(Nc4ccc5[nH]ccc5c4)nc4ccccc43)n2)cc(OC)c1OC [Compound 376]	4.72 to 6.88	–	–
COc1cc(Nc2ncnc(-n3cc(CC(N)=O)c4ccccc43)n2)cc(OC)c1OC [Compound 353]	–	< 0.921	–
COc1cc(Nc2ncnc(Nc3ccc(N(C)C)cc3)n2)cc(OC)c1OC [Compound 27]	–	1.01 to 6.05	–
COc1cc(Nc2ncnc(Nc3cc(Cl)c(O)c(Cl)c3)n2)cc(OC)c1OC [Compound 68]	–	0.913 to 5.48	–
COc1cc(Nc2ncnc(Nc3cccc(Br)c3)n2)cc(OC)c1OC [Compound 75]	–	> 10.4	–
COc1cc(Nc2ncnc(Nc3cc(OC)c(OC)c(OC)c3)n2)cc(OC)c1 [Compound 86]	0.968 to 5.81	0.968 to 5.81	–
COC(=O)c1cccc(Nc2ncnc(Nc3cc(-c4ccco4)n[nH]3)n2)c1 [Compound 344]	–	1.06 to 6.36	–
COc1cc(Nc2ncnc(Nc3cnc4ccccc4c3)n2)cc(OC)c1OC [Compound 99]	–	0.989 to 5.93	–
COc1cc(Nc2ncnc(-n3c(N)nc4ccccc43)n2)cc(OC)c1OC [Compound 289]	> 11.4	1.02 to 6.1	–

SMILES	IC50 (ErbB2) [µM]	IC50 (Ret-1) [µM]	IC50 (PDGFRB) [µM]
NC(=O)c1ccc(Nc2ncnc(Nc3cc(-c4ccco4)n[nH]3)n2)cc1 [Compound 341]	–	< 1.1	–
COc1cc(Nc2ncnc(Nc3ccc4[nH]ccc4c3)n2)cc(OC)c1OC [Compound 928]	< 1.02	< 1.02	–
COc1cc(Nc2ncnc(Nc3ccccc3C)n2)cc(OC)c1OC [Compound 67]	–	> 12.2	–
COc1cc(Nc2ncnc(Nc3ccc4[nH]ncc4c3)n2)cc(OC)c1OC [Compound 79]	–	> 11.4	–
COc1cc(Nc2ncnc(Nc3ccc4cn[nH]c4c3)n2)cc(OC)c1OC [Compound 70]	–	1.02 to 6.1	–
COc1cc(Nc2ncnc(Nc3ccc(Oc4ccccc4)cc3)n2)cc(OC)c1OC [Compound 29]	–	< 0.898	–
COc1cc(Nc2ncnc(NC(=O)Nc3ccccc3)n2)cc(OC)c1OC [Compound 852]	6.05 to 8.83	6.05 to 8.83	–
COc1cc(Nc2ncnc(Nc3ccc(O)cc3)n2)cc(OC)c1OC [Compound 85]	–	1.08 to 6.5	–
COc1cc(Nc2ncnc(Nc3cccc4ccccc34)n2)cc(OC)c1OC [Compound 98]	< 0.991	> 11.2	–
COC(=O)c1cccc(Nc2nc3ccccc3n2-c2ncnc(Nc3cc(OC)c(OC)c(OC)c3)n2)c1 [Compound 383]	4.55 to 6.63	–	< 0.758
COc1cc(Nc2ncnc(Nc3cc(-c4ccccc4)n[nH]3)n2)cc(OC)c1OC [Compound 102]	0.954 to 5.72	0.954 to 5.72	–
COc1cc(Nc2ncnc(Nc3ccc(O)cc3Cl)n2)cc(OC)c1OC [Compound 77]	–	0.991 to 5.94	–
COc1cc(Nc2ncnc(Nc3cccc4cccnc34)n2)cc(OC)c1OC [Compound 97]	> 11.1	0.989 to 5.93	–
COc1cc(Nc2ncnc(Nc3ccccc3)n2)cc(OC)c1OC [Compound 91]	1.13 to 6.79	1.13 to 6.79	–
COc1ccc(Nc2ncnc(Nc3cc(OC)c(OC)c(OC)c3)n2)cc1 [Compound 89]	–	1.04 to 6.26	–
COc1cc(Nc2ncnc(Nc3cc(C)c(O)cc3C)n2)cc(OC)c1OC [Compound 94]	–	> 11.3	–
COc1cc(Nc2ncnc(Nc3ccc(N)cc3)n2)cc(OC)c1OC [Compound 92]	–	> 12.2	–
COc1cc(Nc2ncnc(Nc3ccc(C)c(O)c3)n2)cc(OC)c1OC [Compound 83]	< 1.04	< 1.04	–
COc1cc(Nc2ncnc(-n3c(NCc4ccccc4)nc4ccccc43)n2)cc(OC)c1OC [Compound 371]	> 9.31	–	–
O=C1OCc2ccc(Nc3ncnc(Nc4cc(-c5ccco5)n[nH]4)n3)cc21 [Compound 364]	–	1.07 to 6.39	–
